Laboratory results from patent US10029986B2, “Alkynyl pyridine-substituted amide compound and pesticide” (NISSAN CHEMICAL INDUSTRIES, LTD., priority 2014, dated 2018).
Blank lines part the entries; values can stand above or below the compound they belong to.

Tests used:
[1] = system: Erysiphe polygoni (synonym: Erysiphe betae); assay: Test on the preventive effect against cucumber powdery mildew; type: in vivo; details: 216 h, test solution A 500 ppm, 5 ml per pot sprayed, cucumber cotyledon stage, 9 days after inoculation
How it was run: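 Cucumber (Sagami Hanjiro) at cotyledon stage sprayed with 500 ppm compound (diluted from 20 wt% emulsifiable concentrate), air-dried, then inoculated with Erysiphe polygoni conidia. Kept 9 days at 20 °C in greenhouse; lesion area ratio scored in duplicate, control value = [1−(treated/untreated lesion ratio)]×100.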

Botrytis cinerea = assay: Test on the preventive effect against cucumber gray mold (spore inoculation); type: in vivo; details: 72 h, test solution A 500 ppm, 5 ml per pot, cucumber cut leaves, conidium inoculation, 3 days at 20° C.
How it was run: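 Cotyledon-stage cucumber (Sagami Hanjiro) sprayed with 500 ppm compound from emulsifiable concentrate; detached treated leaves inoculated with B. cinerea conidia in PDA (1:1). After 3 days at 20 °C, humid, lesion proportion gave control value; duplicate test.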

Sclerotinia sclerotiorum = assay: Test on the preventive effect against cucumber stem rot; type: in vivo; details: 48 h, test solution A 500 ppm, 5 ml per pot, agar block inoculation, 2 days at 20° C.
How it was run: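 Cucumber (Sagami Hanjiro) at cotyledon stage sprayed with 5 ml/pot of 500 ppm compound from a 20 wt % emulsifiable concentrate, air-dried, then inoculated on seed leaves with agar blocks of S. sclerotiorum grown on PDA. Kept humid at 20° C for 2 days; lesion proportion scored and control value calculated, in duplicate.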

[2] = system: Colletotrichum lagenarium (Synonym: Colletotrichum orbiculare); assay: Test on the preventive effect against cucumber anthracnose; type: in vivo; details: 168 h, test solution A 500 ppm, 5 ml per pot sprayed, 2 days inoculation chamber then 7 days at 23° C.
Experimental: Compounds of the present invention were dissolved in a solvent for emulsion (a mixture of Sorpol (registered trademark) 3005XL (manufactured by Toho Chemical Industry Co., Ltd.): N-methylpyrrolidone: Solvesso (registered trademark) 200 (manufactured by ExxonMobil Chemical) in a ratio of 1:5:2) to prepare 20 wt % emulsifiable concentrates. Then, distilled water was added to dilute the emulsifiable concentrates to the prescribed concentration (500 ppm), and the obtained solutions were used in the following the Test Examples 1 to 8. Cucumber (varieties: Sagami Hanjiro) was seeded in 90 cm^3 plastic pot, and at the cotyledon stage, 5 ml per pot of test solution A of the compounds of the present invention was sprayed. One day later, a suspension of conidium of Colletotrichum lagenarium (Synonym: Colletotrichum orbiculare) was sprayed, and the pot was left for 2 days in the inoculation chamber at 25° C. under humidity of 100% RH. Thereafter, the pot was placed in an air-conditioned greenhouse (23° C.) and left at the same temperature for 7 days. Thereafter, the proportion of the formed lesion in the inoculated leaves were measured to calculate the control value in accordance with the same formula as in Test Example 1. The test was carried out in duplicate.

Puccinia recondita = assay: Test on the preventive effect against wheat leaf rust; type: in vivo; details: 216 h, test solution A 500 ppm, 5 ml per pot, wheat 1.3-leaf stage, 1 day inoculation chamber then 8 days at 20° C.
Experimental: Compounds of the present invention were dissolved in a solvent for emulsion (a mixture of Sorpol (registered trademark) 3005XL (manufactured by Toho Chemical Industry Co., Ltd.): N-methylpyrrolidone: Solvesso (registered trademark) 200 (manufactured by ExxonMobil Chemical) in a ratio of 1:5:2) to prepare 20 wt % emulsifiable concentrates. Then, distilled water was added to dilute the emulsifiable concentrates to the prescribed concentration (500 ppm), and the obtained solutions were used in the following the Test Examples 1 to 8. Wheat (varieties: Norin 61) was seeded in 90 cm^3 plastic pot, and at 1.3-leaf stage, 5 ml per pot of test solution A of the compounds of the present invention was applied. One day after treatment, a suspension of spores of Puccinia recondita was sprayed to the wheat, and the pot was left in the inoculation chamber at 20° C. under humidity of 100% RH for 1 day. Thereafter, the pot was placed in an air-conditioned greenhouse (20° C.) for 8 days. The proportion of the formed lesion in the inoculated leaves were counted to calculate the control value in accordance with the same formula as in the Test Example 1. The test was carried out in duplicate.

Structure (SMILES): O=C(NCC(c1ncc(C#CC2CC2)cc1Cl)C1CC1)c1cccnc1C(F)F (stereo not drawn) [3-008]
- pest or weed control at 500 µg/mL [1]: ≥ 70%
- pest or weed control at 500 µg/mL (Botrytis cinerea): ≥ 70%
- pest or weed control at 500 µg/mL (Sclerotinia sclerotiorum): ≥ 70%
- pest or weed control at 500 µg/mL [2]: ≥ 70%
- pest or weed control at 500 µg/mL (Puccinia recondita): ≥ 70%

Structure (SMILES): Cc1nc(C(F)F)c(C(=O)NCC(C)c2ncc(C#CC3CC3)cc2Cl)s1 (stereo not drawn) [9-002]
- pest or weed control at 500 µg/mL [1]: ≥ 70%
- pest or weed control at 500 µg/mL (Botrytis cinerea): ≥ 70%
- pest or weed control at 500 µg/mL (Sclerotinia sclerotiorum): ≥ 70%
- pest or weed control at 500 µg/mL [2]: ≥ 70%

Structure (SMILES): CC(CNC(=O)c1cccnc1C(F)F)c1ncc(C#CC2CC2)cc1Cl (stereo not drawn) [3-006]
- pest or weed control at 500 µg/mL [1]: ≥ 70%
- pest or weed control at 500 µg/mL (Botrytis cinerea): ≥ 70%
- pest or weed control at 500 µg/mL (Sclerotinia sclerotiorum): ≥ 70%
- pest or weed control at 500 µg/mL [2]: ≥ 70%

Structure (SMILES): CSC(CNC(=O)c1cn(C)nc1C(F)F)c1ncc(C#CC2CC2)cc1Cl (stereo not drawn) [8-020, N-[2-[3-chloro-5-(cyclopropylethynyl)pyridin-2-yl]-2-(methylthio)ethyl]-3-difluoromethyl-1-methyl-1H-pyrazole-4-carboxamide]
- pest or weed control at 500 µg/mL [1]: ≥ 70%
- pest or weed control at 500 µg/mL (Botrytis cinerea): ≥ 70%
- pest or weed control at 500 µg/mL (Sclerotinia sclerotiorum): ≥ 70%
- pest or weed control at 500 µg/mL [2]: ≥ 70%

Structure (SMILES): CSC(CNC(=O)c1cccnc1C(F)F)c1ncc(C#CC2CC2)cc1Cl (stereo not drawn) [3-020]
- pest or weed control at 500 µg/mL [1]: ≥ 70%
- pest or weed control at 500 µg/mL (Botrytis cinerea): ≥ 70%
- pest or weed control at 500 µg/mL (Sclerotinia sclerotiorum): ≥ 70%
- pest or weed control at 500 µg/mL [2]: ≥ 70%
- pest or weed control at 500 µg/mL (Puccinia recondita): ≥ 70%

Structure (SMILES): CC(Cc1ncc(C#Cc2ccccc2)cc1Cl)NC(=O)c1cn(C)nc1C(F)F (stereo not drawn) [8-027]
- pest or weed control at 500 µg/mL [1]: ≥ 70%
- pest or weed control at 500 µg/mL (Botrytis cinerea): ≥ 70%
- pest or weed control at 500 µg/mL (Sclerotinia sclerotiorum): ≥ 70%
- pest or weed control at 500 µg/mL [2]: ≥ 70%
- pest or weed control at 500 µg/mL (Puccinia recondita): ≥ 70%

Structure (SMILES): Cn1cc(C(=O)NCC(c2ncc(C#CC3CC3)cc2Cl)C2CC2)c(C(F)F)n1 (stereo not drawn) [8-009]
- pest or weed control at 500 µg/mL [1]: ≥ 70%
- pest or weed control at 500 µg/mL (Botrytis cinerea): ≥ 70%
- pest or weed control at 500 µg/mL (Sclerotinia sclerotiorum): ≥ 70%
- pest or weed control at 500 µg/mL [2]: ≥ 70%
- pest or weed control at 500 µg/mL (Puccinia recondita): ≥ 70%

Continued, in another order:

- melting point: 127 to 130 °C
Structure (SMILES): CC(Cc1ncc(C#CC2CC2)cc1Cl)NC(=O)c1cn(C)nc1C(F)F (stereo not drawn) [8-024, N-[2-[3-chloro-5-(cyclopropylethynyl)pyridin-2-yl]-1-methylethyl]-3-difluoromethyl-1-methyl-1H-pyrazole-4-carboxamide]
- pest or weed control at 500 µg/mL [1]: ≥ 70%
- pest or weed control at 500 µg/mL (Botrytis cinerea): ≥ 70%
- pest or weed control at 500 µg/mL (Sclerotinia sclerotiorum): ≥ 70%
- pest or weed control at 500 µg/mL [2]: ≥ 70%
- pest or weed control at 500 µg/mL (Puccinia recondita): ≥ 70%

- melting point: 116 to 118 °C
Structure (SMILES): O=C(NCC(F)(F)c1ncc(C#CC2CC2)cc1Cl)c1cccnc1C(F)F [3-003, N-[2-[3-chloro-5-(cyclopropylethynyl)pyridin-2-yl]-2,2-difluoroethyl]-2-(difluoromethyl)nicotinamide]
- pest or weed control at 500 µg/mL [1]: ≥ 70%
- pest or weed control at 500 µg/mL (Botrytis cinerea): ≥ 70%
- pest or weed control at 500 µg/mL (Sclerotinia sclerotiorum): ≥ 70%
- pest or weed control at 500 µg/mL [2]: ≥ 70%
- pest or weed control at 500 µg/mL (Puccinia recondita): ≥ 70%

- melting point: 105 to 108 °C
Structure (SMILES): O=C(NCCc1ncc(C#CC2CC2)cc1Cl)c1ccccc1C(F)(F)F [1-002]
- pest or weed control at 500 µg/mL [1]: ≥ 70%
- pest or weed control at 500 µg/mL (Botrytis cinerea): ≥ 70%
- pest or weed control at 500 µg/mL (Sclerotinia sclerotiorum): ≥ 70%
- pest or weed control at 500 µg/mL [2]: ≥ 70%

- melting point: 100 to 103 °C
Structure (SMILES): CC#Cc1cnc(CCNC(=O)c2ccccc2C(F)(F)F)c(Cl)c1 [1-001, N-[2-[3-chloro-5-(1-propynyl)pyridin-2-yl]ethyl]-2-(trifluoromethyl)benzamide]
- pest or weed control at 500 µg/mL [1]: ≥ 70%
- pest or weed control at 500 µg/mL (Botrytis cinerea): ≥ 70%
- pest or weed control at 500 µg/mL (Sclerotinia sclerotiorum): ≥ 70%
- pest or weed control at 500 µg/mL [2]: ≥ 70%

- melting point: 66 to 70 °C
Structure (SMILES): C=C(CNC(=O)c1cn(C)nc1C(F)F)c1ncc(C#CC2CC2)cc1Cl [8-011, N-[2-[3-chloro-5-(cyclopropylethynyl)pyridin-2-yl]-2-propenyl]-3-difluoromethyl-1-methyl-1H-pyrazole-4-carboxamide]
- pest or weed control at 500 µg/mL [1]: ≥ 70%
- pest or weed control at 500 µg/mL (Botrytis cinerea): ≥ 70%
- pest or weed control at 500 µg/mL (Sclerotinia sclerotiorum): ≥ 70%
- pest or weed control at 500 µg/mL (Puccinia recondita): ≥ 70%

- melting point: 100 to 101 °C
Structure (SMILES): Cn1cc(C(=O)NCC(F)(F)c2ncc(C#CC3CC3)cc2Cl)c(C(F)F)n1 [8-003]
- pest or weed control at 500 µg/mL [1]: ≥ 70%
- pest or weed control at 500 µg/mL (Botrytis cinerea): ≥ 70%
- pest or weed control at 500 µg/mL (Sclerotinia sclerotiorum): ≥ 70%
- pest or weed control at 500 µg/mL [2]: ≥ 70%

- melting point: 137 to 139 °C
Structure (SMILES): O=C(NCC(F)(F)c1ncc(C#CC2CC2)cc1Cl)c1ccccc1C(F)(F)F [1-005]
- pest or weed control at 500 µg/mL [1]: ≥ 70%
- pest or weed control at 500 µg/mL (Botrytis cinerea): ≥ 70%
- pest or weed control at 500 µg/mL (Sclerotinia sclerotiorum): ≥ 70%
- pest or weed control at 500 µg/mL [2]: ≥ 70%

- melting point: 144 to 146 °C
Structure (SMILES): CC(C)(C)C#Cc1cnc(CCNC(=O)c2cccnc2C(F)F)c(Cl)c1 [3-002]
- pest or weed control at 500 µg/mL [1]: ≥ 70%
- pest or weed control at 500 µg/mL (Botrytis cinerea): ≥ 70%
- pest or weed control at 500 µg/mL (Sclerotinia sclerotiorum): ≥ 70%
- pest or weed control at 500 µg/mL [2]: ≥ 70%
- pest or weed control at 500 µg/mL (Puccinia recondita): ≥ 70%
